Data from US12692291B2, “Diamine-linked melanocortin receptor-specific cyclic peptides for ocular indications” (Boehringer Ingelheim International GmbH, priority 2020, dated 2026).
*1 amine or outer side, *2 acyl side, *3 side chain or, on linkers, in order; H or OH if unused. Where a SMILES comes first, the peptide text is derived from it. Bridges are numbered along the chain shown (N, C = ends). [ ]: non-standard residue; d: D form. dPhe(4-F) = N[C@H](Cc1ccc(F)cc1)C(=O)O; NH(CH2)4NH = C(CCN[*:2])CN[*:1]; Nle = CCCC[C@H](N)C(=O)O

Experiments:
MC4r = target: T1, MC4r (Homo sapiens, UniProt P32245); assay: cAMP agonist functional assay, recombinant MC4r in HEK-293 cells; assay type: cell-based
T1 construct: expressed in transfected cells; host or cells: HEK-293
T1 sequence (P32245 whole entry): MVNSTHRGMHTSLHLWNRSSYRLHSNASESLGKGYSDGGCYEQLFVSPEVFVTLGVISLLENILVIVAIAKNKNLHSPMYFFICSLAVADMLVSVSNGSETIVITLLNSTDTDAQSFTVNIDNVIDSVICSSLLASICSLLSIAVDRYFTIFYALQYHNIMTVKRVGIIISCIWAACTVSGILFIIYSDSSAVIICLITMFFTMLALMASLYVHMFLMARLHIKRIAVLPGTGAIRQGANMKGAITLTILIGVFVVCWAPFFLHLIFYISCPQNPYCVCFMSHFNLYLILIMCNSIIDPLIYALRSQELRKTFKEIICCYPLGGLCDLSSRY
Procedure: (§1) Accumulation of intracellular cAMP was examined as a measure of the ability of the peptides to elicit a functional response in either HEK-293 cells that express recombinant MC3r or MC4r or B16-F10 (mouse) and HBL (human) cell lines that express native MC1 r. Confluent cells were detached from culture plates by incubation in enzyme-free cell dissociation buffer. Dispersed cells were suspended in Hank's Balanced Salt Solution containing 10 mM HEPES (pH 7.5), 1 mM MgCl2, 1 mM glutamine, 0.5% albumin and 0.3 mM 3-isobutyl-1-methyl-xanthine (IBMX), a phosphodiesterase inhibitor. The cells were dispensed into 96-well plates at a density of 0.5×10^5 cells per well and pre-incubated for 10 minutes. Cells were exposed for 15 minutes at 37° C. to peptides dissolved in DMSO (final DMSO concentration of 1%) at a concentration range of 0.05-5000 nM in a total assay volume of 200 μL. […] Data analysis was performed by nonlinear regression analysis with Graph-Pad Prism® software.

MC1r (HBL) = target: T2, MC1r (HBL) (Homo sapiens, UniProt Q01726); assay: cAMP agonist functional assay, native MC1r in HBL cells; assay type: cell-based
T2 construct: B16-F10 (mouse) and HBL (human) cell lines that express native MC1 r; endogenous in cells; host or cells: HBL (human) cell line
T2 sequence (Q01726 whole entry): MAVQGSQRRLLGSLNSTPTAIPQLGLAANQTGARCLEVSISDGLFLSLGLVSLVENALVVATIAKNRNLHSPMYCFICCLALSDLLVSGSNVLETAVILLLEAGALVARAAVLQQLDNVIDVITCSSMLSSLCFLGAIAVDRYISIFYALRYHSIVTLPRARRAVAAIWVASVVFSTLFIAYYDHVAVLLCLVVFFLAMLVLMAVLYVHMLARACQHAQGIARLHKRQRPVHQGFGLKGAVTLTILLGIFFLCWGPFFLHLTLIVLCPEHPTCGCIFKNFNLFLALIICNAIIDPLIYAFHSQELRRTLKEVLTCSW
Procedure: as §1

[1] = Ocular tissue distribution after dosing to the eye, mouse model; assay type: in vivo; conditions: at both 4 and 24 hours after dosing to the eye
Procedure: Peptide No. 60 was evaluated in several stability and pharmacokinetic models.

[2] = test system: adult subjects with mild, moderate or severe dry eye disease; assay: Phase 2 placebo-controlled study in dry eye disease, Controlled Adverse Environment; assay type: in vivo, human
Source text: Peptide No. 60 was utilized in the ophthalmologic solution drug product of Example 9.3 in a multi-center, double-masked, randomized, placebo-controlled, parallel-arm, Phase 2 study, which enrolled approximately 160 subjects (80 subjects per treatment arm). The objective of this study was to compare the safety and efficacy of Peptide No. 60 to its vehicle from Day 1 (baseline) to Day 85 (Week 12) in adult subjects with mild, moderate or severe dry eye disease in a Controlled Adverse Environment (CAE) setting. Both signs and symptoms were assessed at periodic visits.
During the screening period, two 90-minute exposures to the CAE were conducted to ascertain eligibility to enter the study. Subjects who qualify were randomized to receive study drug or placebo in a double-masked fashion for 12 weeks. Subjects self-administered drops three times per day (TID) and completed daily diary assessments as instructed.
At Visits 3 (Day 15, Week 2), 4 (Day 29, Week 4), 5 (Day 57, Week 8), and 6 (Day 85, Week 12), subjects were exposed to a CAE, with pre-CAE, during CAE (symptoms only) and post-CAE assessments of ocular signs and symptoms.

MC5r [3] = target: T3, MC5r (Homo sapiens, UniProt P33032); assay: cAMP agonist functional assay at MC5r (not CEREP); assay type: cell-based
Target sequence in this assay (P33032 whole entry, species assumed): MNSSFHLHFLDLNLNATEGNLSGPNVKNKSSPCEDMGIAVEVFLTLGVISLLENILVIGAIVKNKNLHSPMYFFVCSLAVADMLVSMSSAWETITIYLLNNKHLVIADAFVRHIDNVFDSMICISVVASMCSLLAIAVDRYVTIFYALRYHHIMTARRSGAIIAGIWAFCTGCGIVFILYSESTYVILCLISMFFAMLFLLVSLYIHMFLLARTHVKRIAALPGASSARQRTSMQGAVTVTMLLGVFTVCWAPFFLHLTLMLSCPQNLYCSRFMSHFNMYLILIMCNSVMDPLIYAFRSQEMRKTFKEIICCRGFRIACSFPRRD

MC5r [4] = target: T3, MC5r; assay: CEREP agonist assay, cAMP production by HTRF, MC5 in CHO-K1 cells; assay type: cell-based
Procedure: Evaluation of the agonist activity of compounds at the melanocortin receptors was determined by measuring their effects on cAMP production using the HTRF detection method at CEREP (Eurofins CEREP SA, Celle-Levescault, France). The cells were suspended in HBSS buffer (Invitrogen) complemented with 20 mM HEPES (pH 7.4) and 500 μM IBMX, then distributed in microplates and incubated in the presence of HBSS (basal control), the test compound or the reference agonist. Incubation time, temperature, cell number, reference agonist and cell line information are included in the Table 1 below. For stimulated control measurement, separate assay wells contain reference compound. Following incubation, the cells are lysed and the fluorescence acceptor (D2-labeled cAMP) and fluorescence donor (anti-cAMP antibody labeled with europium cryptate) were added. After 60 minutes at room temperature, the fluorescence transfer was measured at excitation wavelength 337 nm and emission wavelengths 620 and 665 nm using a microplate reader (Envision, Perkin Elmer). The cAMP concentration was determined by dividing the signal measured at 665 nm by that measured at 620 nm (ratio).
The results are expressed as a percent of the control response to 1 μM of the reference. The standard reference agonist is tested in each experiment at several concentrations to generate a concentration-response curve from which its EC50 value is calculated.
Target sequence in this assay (P33032 whole entry): as the sequence (P33032 whole entry, species assumed) above

MC1r (B16/F10) = target: T4, MC1r (B16/F10) (Mus musculus, UniProt Q01727); assay: cAMP agonist functional assay, native MC1r in B16-F10 cells; assay type: cell-based
T4 construct: B16-F10 (mouse) and HBL (human) cell lines that express native MC1 r; endogenous in cells; host or cells: B16-F10 (mouse) cell line
T4 sequence (Q01727 whole entry): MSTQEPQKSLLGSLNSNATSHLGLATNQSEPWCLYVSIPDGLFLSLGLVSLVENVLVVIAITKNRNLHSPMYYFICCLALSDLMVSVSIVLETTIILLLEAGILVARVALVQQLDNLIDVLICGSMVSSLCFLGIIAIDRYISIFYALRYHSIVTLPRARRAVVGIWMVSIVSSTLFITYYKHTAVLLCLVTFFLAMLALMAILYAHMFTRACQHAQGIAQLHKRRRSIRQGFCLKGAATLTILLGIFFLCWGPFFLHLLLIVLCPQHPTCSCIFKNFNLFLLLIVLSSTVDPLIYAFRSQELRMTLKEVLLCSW
Procedure: as §1

male C57BL/6JRj mice = assay: Chronic dry-eye disease mouse model (desiccating environment plus scopolamine), corneal fluorescein staining; assay type: in vivo; conditions: for corneal fluorescein staining compared with untreated eyes: Day 24, after 12 days topical treatment
Procedure: To determine efficacy of peptide No. 60 for moderate, chronic dry-eye disease, male C57BL/6JRj mice were exposed to a controlled desiccating environment with transdermal administration of scopolamine (SiccaSystem™) to establish disease prior to any treatment. Corneal fluorescein staining was performed on study Days 10 and 12 (prior to treatment) and Day 24 (after 12 days of topical treatment with test compounds). Animals were randomized into 6 different experimental groups (n=12 for each treatment group, n=7 for untreated eyes) based on the fluorescein score on Day 12. Treatment arms included untreated and vehicle-treated animals and animals receiving Peptide No. 60 (3 different concentrations, 10^−2, 10^−3, and 10^−4 mg/mL) or the reference compound cyclosporin ophthalmic emulsion, sold under the trade name Restasis®.

MC3r = target: T5, MC3r (Homo sapiens, UniProt P41968); assay: cAMP agonist functional assay, recombinant MC3r in HEK-293 cells; assay type: cell-based
T5 construct: expressed in transfected cells; host or cells: HEK-293
T5 sequence (P41968 whole entry, species assumed): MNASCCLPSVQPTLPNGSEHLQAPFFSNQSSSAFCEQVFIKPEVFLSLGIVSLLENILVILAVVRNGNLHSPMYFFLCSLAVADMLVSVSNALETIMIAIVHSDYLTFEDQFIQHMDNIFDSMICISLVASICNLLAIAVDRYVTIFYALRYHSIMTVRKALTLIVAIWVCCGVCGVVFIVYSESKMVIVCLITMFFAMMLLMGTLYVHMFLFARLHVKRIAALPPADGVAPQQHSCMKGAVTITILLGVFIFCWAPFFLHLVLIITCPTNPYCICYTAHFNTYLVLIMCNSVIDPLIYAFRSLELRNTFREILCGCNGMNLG
Procedure: as §1

CCCC[C@H](NC(C)=O)C(=O)N[C@H]1CCC(=O)NCCCCNC(=O)[C@H](Cc2c[nH]c3ccccc23)NC(=O)[C@H](CCCNC(=N)N)NC(=O)[C@@H](Cc2ccc(F)cc2)NC(=O)[C@H](Cc2c[nH]cn2)NC1=O [Peptide No. 60, Ac-Nle-cyclo(Glu-His-D-Phe(4-F)-Arg-Trp-NH—(CH2)4—NH)] (Ac-[Nle]EH[dPhe(4-F)]RW; linker 2-C via NH(CH2)4NH)
EC50 (MC4r; MC4r): 2 nM
Fold Peptide No. 60 More Potent Than Bremelanotide (MC4r; MC4r): 0.5X
Fold Peptide No. 60 More Potent Than α-MSH (MC4r; MC4r): 1.5X
potency compared to α-MSH (in words) (MC4r; at MC4r): roughly comparable
EC50 (MC1r (HBL); MC1r (HBL)): 0.13 nM
Fold Peptide No. 60 More Potent Than Bremelanotide (MC1r (HBL); MC1r (HBL)): 0.78X
Fold Peptide No. 60 More Potent Than α-MSH (MC1r (HBL); MC1r (HBL)): 69X
potency compared to bremelanotide (in words) (MC1r (HBL); at MC1r): approximately equal potency
potency compared to α-MSH (in words) (MC1r (HBL); at MC1r): greater relative potency
presence in ocular tissues [1]: found in both the conjunctiva and lacrimal gland
ocular, drug-related adverse events ([2]; Phase 2 study): no ocular, drug-related adverse events
serious adverse events associated with study treatment ([2]; Phase 2 study): no serious adverse events associated with study treatment observed
patients discontinued from the study ([2]; not deemed to be drug related): one
EC50 (MC5r [3]; MC5r): 0.15 nM
Fold Peptide No. 60 More Potent Than Bremelanotide (MC5r [3]; MC5r): 22,500X
Fold Peptide No. 60 More Potent Than α-MSH (MC5r [3]; MC5r): 686X
potency compared to α-MSH (in words) (MC5r [3]; at MC5r): greater relative potency
EC50 (MC5r [4]): 0.39 nM
Fold Peptide No. 60 More Potent Than Bremelanotide (MC5r [4]): >25,000X (CEREP)
Fold Peptide No. 60 More Potent Than α-MSH (MC5r [4]): 930X (CEREP)
EC50 (MC1r (B16/F10)): 0.02 nM
Fold Peptide No. 60 More Potent Than Bremelanotide (MC1r (B16/F10)): 5X
Fold Peptide No. 60 More Potent Than α-MSH (MC1r (B16/F10)): 11X
corneal fluorescein staining compared with untreated eyes (male C57BL/6JRj mice; 10^−2 mg/ml, P<0.05, Dunn's multiple comparisons test): statistically significant lower corneal fluorescein staining
corneal fluorescein staining compared with untreated eyes (male C57BL/6JRj mice; 10^−3 mg/ml, P<0.01, Dunn's multiple comparisons test): statistically significant lower corneal fluorescein staining
corneal fluorescein staining compared with untreated eyes (male C57BL/6JRj mice; 10^−4 mg/ml, P<0.01, Dunn's multiple comparisons test): statistically significant lower corneal fluorescein staining
corneal fluorescein staining/scores, Day 12 compared with Day 24 for the same eye (male C57BL/6JRj mice; doses between 10^−2 and 10^−4 mg/mL, topical): statistically significantly improvement of corneal fluorescein scores
EC50 (MC3r; MC3r): 0.77 nM
Fold Peptide No. 60 More Potent Than Bremelanotide (MC3r; MC3r): 4X
Fold Peptide No. 60 More Potent Than α-MSH (MC3r; MC3r): 3.9X
potency compared to α-MSH (in words) (MC3r; at MC3r): roughly comparable
